Source: the supplement of paper PMC10307832

How the values were obtained:
Assay in all cases: relative viability (nuclei count vs DMSO), 5 days (fraction); higher = more cells survive
[1] = compound: CN(C/C=C/C1=CC=C(C=C1)Cl)CC2=CC=CC=C2N(CCO)S(=O)(=O)C3=CC=C(C=C3)OC [KN-93] + C[C@]1(O)C[C@@H](c2nc(-c3ccc4ccc(-c5ccccc5)nc4c3)c3c(N)nccn32)C1 [Linsitinib] (partner 1 µM)
Procedure, shortened: (§1)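 Each reported value is a median over duplicate plates. It expresses relative viability: treated-well nuclei count divided by vehicle-well nuclei count. Lung cancer cell lines in 1536-well plates were dosed by pin tool a day after seeding, alone with one drug or with a fixed anchor-drug dose plus five library-drug doses (not always all listed) in √10 steps, and nuclei were counted after 5 days.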

[2] = compound: CN(C/C=C/C1=CC=C(C=C1)Cl)CC2=CC=CC=C2N(CCO)S(=O)(=O)C3=CC=C(C=C3)OC [KN-93] + Cc1cc(Nc2cc(N3CCN(C)CC3)nc(Sc3ccc(NC(=O)C4CC4)cc3)n2)n[nH]1 [Tozasertib] (partner 0.1 µM)
Procedure, shortened: as §1

[3] = compound: CN(C/C=C/C1=CC=C(C=C1)Cl)CC2=CC=CC=C2N(CCO)S(=O)(=O)C3=CC=C(C=C3)OC [KN-93] + Cc1nc(Nc2ncc(C(=O)Nc3c(C)cccc3Cl)s2)cc(N2CCN(CCO)CC2)n1 [Dasatinib] (partner 0.075 µM)
Procedure, shortened: as §1

[4] = compound: CN(C/C=C/C1=CC=C(C=C1)Cl)CC2=CC=CC=C2N(CCO)S(=O)(=O)C3=CC=C(C=C3)OC [KN-93] + O=C(CCCCCCC(=O)Nc1ccccc1)NO [Vorinostat] (partner 1 µM)
Procedure, shortened: as §1

[5] = compound: CN(C/C=C/C1=CC=C(C=C1)Cl)CC2=CC=CC=C2N(CCO)S(=O)(=O)C3=CC=C(C=C3)OC [KN-93] + O=C(c1cc(Cc2n[nH]c(=O)c3ccccc23)ccc1F)N1CCN(C(=O)C2CC2)CC1 [Olaparib] (partner 8 µM)
Procedure, shortened: as §1

Cell Line | relative viability ([1]; first compound 0.08 µM) | relative viability ([1]; first compound 0.253 µM) | relative viability ([1]; first compound 2.53 µM) | relative viability ([1]; first compound 8 µM) | relative viability ([2]; first compound 0.08 µM) | relative viability ([2]; first compound 0.253 µM) | relative viability ([2]; first compound 2.53 µM) | relative viability ([2]; first compound 8 µM) | relative viability ([3]; first compound 0.08 µM) | relative viability ([3]; first compound 0.253 µM) | relative viability ([3]; first compound 2.53 µM) | relative viability ([3]; first compound 8 µM) | relative viability ([4]; first compound 0.08 µM) | relative viability ([4]; first compound 0.253 µM) | relative viability ([4]; first compound 2.53 µM) | relative viability ([4]; first compound 8 µM) | relative viability ([5]; first compound 0.08 µM) | relative viability ([5]; first compound 0.253 µM) | relative viability ([5]; first compound 2.53 µM) | relative viability ([5]; first compound 8 µM)
201T | 1.04 | 0.968 | 0.995 | 0.837 | 0.916 | 0.99 | 0.819 | 0.508 | 0.604 | 0.421 | 0.533 | 0.342 | 0.875 | 0.958 | 0.873 | 0.698 | 0.847 | 0.857 | 0.904 | 0.706
A549 | 0.519 | 0.722 | 0.746 | 0.476 |  |  |  |  |  |  |  |  |  |  |  |  | 0.303 | 0.336 | 0.65 | 0.0828
A-427 | 1.1 | 1.2 | 1.13 | 0.965 | 0.206 | 0.193 | 0.172 | 0.165 | 0.71 | 0.668 | 0.672 | 0.324 | 0.856 | 0.862 | 0.868 | 0.59 | 0.783 | 0.559 | 0.765 | 0.51
ABC-1 | 0.889 | 0.717 | 0.727 | 0.362 | 0.158 | 0.157 | 0.217 | 0.192 | 0.585 | 0.476 | 0.468 | 0.203 | 0.92 | 1.66 | 0.586 | 0.427 | 0.785 | 0.687 | 0.978 | 0.339
BEN |  | 1.31 | 1.03 | 0.786 | 0.525 | 0.529 | 0.489 | 0.531 | 0.307 | 0.319 | 0.307 | 0.266 | 0.637 | 0.596 | 0.599 | 0.487 | 1.13 | 1.19 | 1.06 | 0.713
CAL-12T | 0.926 | 0.766 | 0.694 | 0.729 | 0.299 | 0.354 | 0.324 | 0.176 | 0.358 | 0.286 | 0.509 | 0.139 | 0.833 | 1.01 | 0.783 | 0.687 | 0.772 | 0.777 | 0.788 | 0.641
COR-L23 | 0.683 | 1.07 | 0.887 | 0.577 | 0.185 | 0.205 | 0.177 | 0.156 | 0.505 | 0.45 | 0.595 | 0.354 | 0.448 | 0.46 | 0.509 | 0.402 | 0.298 | 0.338 | 0.357 | 0.327
